Source: ChEMBL document CHEMBL4229401, “Synthesis and evaluation of a ring-constrained Hsp90 C-terminal inhibitor that exhibits neuroprotective activity” (Bioorg Med Chem Lett, 2018)
The source made the active and inactive calls. The rule behind the calls is not given here.

Columns and labels:
[1] = organism: Rattus norvegicus; assay: Neuroprotective activity against H2O2-induced mitochondrial dysfunction in rat 50B11 cells assessed as improvement in mitochondrial biogenesis by measuring increase in maximal respiratory capacity pretreated for 24 hrs followed by H2O2 challenge and measured after 2 hrs; format: functional, cell-based
[2] = organism: Rattus norvegicus; assay: Inhibition of C-terminal Hsp90 in rat 50B11 cells assessed as increase in Hsp70 expression at 0.1 to 1 uM after 24 hrs by Western blot analysis; format: cell-based

Row | Structure (SMILES) | Activity [1] | inhibition [2]
1 | CO[C@@H]1[C@@H](O)[C@@H](O)[C@H](Oc2ccc(CCNC(C)=O)c3c4cccc(F)c4c(=O)n(C)c23)OC1(C)C | Dose-dependent effect | Active
2 | CO[C@@H]1[C@@H](O)[C@@H](O)[C@H](Oc2ccc(CCNC(C)=O)c(-c3cccc(F)c3)c2)OC1(C)C | Dose-dependent effect | Active
